Test results reported in patent publication US20240327429A1, “[1,3]Thiazolo[4,5-d]-pyrimidon-7-ones as inhibitors of NOX4” (Boehringer Ingelheim International GmbH, priority 2023, published 2024).

Target: T1, human NOX1 (hNOX1) (Homo sapiens, UniProt Q9Y5S8)
T1 construct: pLV-CMV-hNOX1-puro (NM_007052.5); host or cells: HEK293 (CLS GmbH), lentiviral transduction
T1 sequence (Q9Y5S8 1-564): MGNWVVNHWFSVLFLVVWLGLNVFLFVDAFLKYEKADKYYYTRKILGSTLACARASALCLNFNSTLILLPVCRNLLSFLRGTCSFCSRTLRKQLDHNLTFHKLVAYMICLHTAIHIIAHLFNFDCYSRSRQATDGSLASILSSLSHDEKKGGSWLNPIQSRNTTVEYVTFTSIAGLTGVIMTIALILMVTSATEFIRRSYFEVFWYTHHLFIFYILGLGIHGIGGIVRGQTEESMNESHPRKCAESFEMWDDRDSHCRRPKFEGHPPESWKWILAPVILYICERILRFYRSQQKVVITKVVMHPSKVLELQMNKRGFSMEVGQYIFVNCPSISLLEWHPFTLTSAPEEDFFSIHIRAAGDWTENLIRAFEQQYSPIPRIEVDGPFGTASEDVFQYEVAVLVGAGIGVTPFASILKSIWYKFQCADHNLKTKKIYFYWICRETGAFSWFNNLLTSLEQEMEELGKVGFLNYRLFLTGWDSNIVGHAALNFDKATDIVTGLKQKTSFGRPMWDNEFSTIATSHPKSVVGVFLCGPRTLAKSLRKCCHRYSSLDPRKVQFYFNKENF
T1 sequence (P13498 2-195 partner limits assumed): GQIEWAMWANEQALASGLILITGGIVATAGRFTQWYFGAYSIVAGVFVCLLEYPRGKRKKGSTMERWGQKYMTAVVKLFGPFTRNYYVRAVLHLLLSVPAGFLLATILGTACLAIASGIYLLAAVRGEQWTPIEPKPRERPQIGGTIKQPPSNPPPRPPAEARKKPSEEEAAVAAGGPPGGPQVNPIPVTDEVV
Assay: NOX1 inhibition assay (L-012), HEK293 cells stably overexpressing human NOX1
Format: cell-based
Conditions: HEK293-hNOX1, PMA stimulated
Source text: Plasmids are Purchased from Vectorbuilder. • for HEK-hNOX1 all necessary subunits are cloned accordingly: • pLV-CMV-hNOX1-puro (NM_007052.5) • pLV-CMV-hNOXO1-blas (NM_172168.3) • pLV-CMV-hp22phox-hygro (NM_000101.4) • pLV-CMV-hNOXA1-neo (NM_006647.2) • for HEK-hNOX3 • pLV-CMV-hNOX3-puro (NM_015718.3)
3rd generation lentiviral particles are produced in HEK293 suspension cells by transient transfection of three helper and expression plasmids. Crucial lentivirus supernatants are harvested, clarified by filtration and concentrated by precipitation. Lentivirus titers are determined in transducing units in (TU/mL) by transduction of HT1080 cells and colony forming assay. Parental HEK293 cells, purchased from CLS GmbH, are transduced with replication-incompetent 3rd generation lentiviral particles (MOI 2) and expanded for at least 2 weeks before cryopreservation of tested lots. During cultivation, medium is changed three times per week and cells are sub-cultured at least once per week. Selection antibiotics are added according to the plasmids (1 μg/ml puromycin, 1.5 μg/ml blasticidin, 200 μg/ml G418 and 100 μg/ml hygromycin).
Evaluation of the NOX4 inhibitors on NOX1 activity is assessed in HEK293 cells stably overexpressing human NOX1 (hNOX1).
Lastly, 8-amino-5-chloro-2,3-dihydro-7-phenyl-pyrido[3,4-d]pyridazine-1,4-dione sodium salt (L-012, CAS 143556-24-5) is added at 400 μM to all wells, and cells are incubated in an incubator for an additional 3 h. Afterwards luminescence is measured with a SpectraMax Paradigm Microplate Reader.

Question: For Cc1cc(F)ccc1CSc1nc2ncsc2c(=O)n1-c1cnc(O)nc1 [Example 58], which IC50 is on record?
Answer: 11.8 µM

Question: With O=c1c2scnc2nc(SCc2c(F)cc(F)cc2F)n1-c1cnc(O)nc1 [Example 59] as the molecule, how does the IC50 read?
Answer: 21 µM

Question: For O=c1c2scnc2nc(SCc2ccc(C(F)(F)F)cc2)n1-c1cnc(O)nc1 [Example 60], which IC50 is on record?
Answer: > 100 µM

Question: With O=c1c2scnc2nc(SCc2ccc(Cl)cc2F)n1-c1ccc(O)nn1 [Example 61, 5-((4-Chloro-2-fluorobenzyl)thio)-6-(6-hydroxypyridazin-3-yl)thiazolo[4,5-d]pyrimidin-7(6H)-one] as the molecule, how does the IC50 read?
Answer: > 100 µM

Question: For Cc1cc(Cl)ccc1CSc1nc2ncsc2c(=O)n1-c1ccc(O)nn1 [Example 62], which IC50 is on record?
Answer: > 100 µM

Question: Which IC50 does the source give for Cc1cc(F)cc(C)c1CSc1nc2ncsc2c(=O)n1-c1ccc(O)nn1 [Example 63] here?
Answer: 43.4 µM

Question: For O=c1c2scnc2nc(SCc2ccc(Cl)cc2)n1-c1ccc(O)nn1 [Example 64], which IC50 is on record?
Answer: > 100 µM

Question: With O=c1c2scnc2nc(SCc2ccc(C(F)(F)F)cc2F)n1-c1ccc(O)nn1 [Example 65] as the molecule, how does the IC50 read?
Answer: > 100 µM

Question: For O=c1c2scnc2nc(SCc2ccc(C(F)(F)F)cc2)n1-c1ccc(O)nn1 [Example 66], which IC50 is on record?
Answer: > 100 µM

Question: With O=c1c2scnc2nc(SCc2c(F)cc(F)cc2F)n1-c1ccc(O)nn1 [Example 67] as the molecule, how does the IC50 read?
Answer: > 100 µM

Question: For Cc1cc(F)ccc1CSc1nc2ncsc2c(=O)n1-c1ccc(O)nn1 [Example 68], which IC50 is on record?
Answer: 11 µM

Question: O=c1c2scnc2nc(SCc2c(F)cc(F)cc2F)n1-c1cnc(O)cn1 [Example 69, 6-(5-Hydroxypyrazin-2-yl)-5-((2,4,6-trifluorobenzyl)thio)thiazolo[4,5-d]pyrimidin-7(6H)-one] was tested. Which IC50 did it give?
Answer: > 100 µM
